Experiment [1] relates to DAEFRH (SEQ ID NO: 26)-specific mAb. Kind of experiment: ELISA with peptide libraries (detection by biotinylated DAEFRH-specific mAb). The experiment is classed as binding, mice. Conditions: mimotopes from libraries 1-3. An excerpt: (§1) Mice are vaccinated with the 6mer peptide DAEFRH (SEQ ID NO: 26) (natural N-terminal Aβ42 sequence) linked to the protein bovine serum albumin BSA (to make use of the hapten-carrier-effect), emulsified in CFA (first injection) and IFA (booster injections). DAEFRH (SEQ ID NO: 26)-peptide-specific, antibody-producing hybridomas are detected by ELISA (DAEFRH (SEQ ID NO: 26)-peptide-coated ELISA plates).
As mentioned above, peptide libraries 1, 2, and 3 are generated with an Applied Biosystems 431A peptide synthesizer following classical Fmoc-chemistry. The commercially available peptide library 4 is generated according to the manufacturer's description (see above and under www.mimotopes.com). The 90 peptides are C-terminally linked to a pin.
The ELISA with each of the peptide libraries have been carried out following standard protocols:
The peptide library is dissolved in 100% DMSO (final concentration 10 mg/ml).
The peptide solution is further diluted in PBS.
The peptide mixture is coated overnight (4° C.) onto ELISA plates (Nunc Maxisorp, Germany), starting with 500 μg/well, and titrated to 100 ng/well.
The plates are washed 3× times with PBS/Tween 20 (0.1% v/v).
The plates are blocked with PBS/BSA (2 h at room temperature).
The plates are washed 3× times with PBS/Tween.
The plates are incubated with biotinylated DAEFRH (SEQ ID NO: 26)-specific mAb (10 μg/ml in PBS) for 4 h at room temperature.
The plates are incubated with streptavidin-horseradish-peroxidase (30 min at room temperature).
The plates are washed 5× times with PBS/Tween.
The plates are incubated with ABTS+H2O2 (0.1% w/v; 10 to 45 min) and the reaction is stopped with citric acid followed by photometric evaluation (wavelength 405 nm).
(In general: ELISA stands for enzyme-linked immunosorbent assay.)

Experiment [2] deals with monoclonal antibody specific for the natural N-terminal Aβ42 sequence DAEFRH. The experiment in a line: Inhibition assay: mimotope peptides compete with plate-bound DAEFRH-BSA for recognition by the biotinylated monoclonal antibody (ELISA). The experiment is classed as binding, mice. The arrangement: key to inhibition (s/m/—): s: strong inhibition; m: moderate inhibition; —: no inhibition. Conditions: for inhibition of epitope recognition by the monoclonal antibody (in words): FIGS. 2-9; for inhibition (s/m/—): peptides of the new screening round and 5mers with non natural amino acids; for concentration at which the peptide is only inhibitory: only inhibitory at a (relatively) high concentration; for Inhibitory capacity of mimotopes: summary Tables 1 and 2, in words.
Description: 1.: Generation of Monoclonal Antibodies (mAb) to Detect Aβ42-Derived Peptide Species with Free N-Terminus (Free Aspartic Acid at the N-Terminus)
as §1
FIGS. 2 and 3 describe the results of inhibition assays performed with mimotope peptides included in and obtained from the 5 libraries (as described). The mimotope peptides compete with the original epitope for recognition by the monoclonal antibody. Original epitope and mimotope peptides contain an additional C at the C-terminus for coupling to a protein carrier (if desired).
(§2) After blocking with PBS/BSA 1% (200 μl/well, 12 h, 4° C.), the plates are washed 3× times with PBS/Tween. Then, biotinylated monoclonal antibody (1:2000, 50 μl/well) and peptides (50 μl/well) at 50, 5, 0.5, 0.05, 0.005, and 0.0005 μg/ml are added for 20 min. at 37° C. The plates are washed 3× times with PBS/Tween and are incubated with horseradish peroxidase (HRP)-labeled streptavidin (100 μl/well, 30 min, RT). The plates are washed 5× times with PBS/Tween and are incubated with ABTS+H2O2 (0.1% w/v, 10 to 45 min) and the reaction is stopped with citric acid followed by photometric evaluation (wavelength 405 nm).
FIGS. 4 and 5 describe the results of inhibition assays performed with mimotope peptides included in and obtained from the 5 libraries (as described). The mimotope peptides compete with the original epitope for recognition by the monoclonal antibody. Original epitope and mimotope peptides contain an additional C at the C-terminus (position 7) for coupling to a protein carrier (if desired).
as §2, with “different concentrations” for “50, 5, 0.5, 0.05, 0.005, and 0.0005 μg/ml”
FIGS. 6 to 8 describe the results of inhibition assays performed with mimotope peptides included in and obtained from the 2 libraries (as described above). The mimotope peptides compete with the original epitope for recognition by the monoclonal antibody. Original epitope and mimotope peptides contain an additional C at the C-terminus (position 7 or position 8, respectively) for coupling to a protein carrier (if desired).

Turning to DIDYHR, in experiment [1], the “detection by the monoclonal antibody” value was “can be detected by the monoclonal antibody”. For DIDYRR, the “detection by the monoclonal antibody” value in experiment [1] is listed as “can be detected by the monoclonal antibody”. As for DLDYHR, in experiment [1], the “detection by the monoclonal antibody” value is on record as “can be detected by the monoclonal antibody”.

As for DLDYRR, the “detection by the monoclonal antibody” value in experiment [1] is on record as “can be detected by the monoclonal antibody”. Take DNEFRSP [Peptide 4012]: in experiment [2], the “inhibition of epitope recognition by the monoclonal antibody (in words)” value (“inhibition of epitope recognition” below) is reported as “moderately inhibit binding” and the “inhibition (s/m/—)” value is recorded as “s”. On to DVDYHR, for which the “detection by the monoclonal antibody” value in experiment [1] was “can be detected by the monoclonal antibody”. Still for that read-out and setting: the same measure for DVDYRR: “can be detected by the monoclonal antibody”; for EIDYHR: “can be detected by the monoclonal antibody”. In the case of ELDYHR, in experiment [1], the “detection by the monoclonal antibody” value is reported as “can be detected by the monoclonal antibody”.

Take EVDYHR: in experiment [1], the “detection by the monoclonal antibody” value is given as “can be detected by the monoclonal antibody”. Turning to GAEFRFT [Peptide 4014], in experiment [2], the “inhibition of epitope recognition” value is listed as “moderately inhibit binding” and the “inhibition (s/m/—)” value was “m”. As to GREFRN [Peptide 4003], in experiment [2], the “inhibition of epitope recognition” value was “block epitope recognition”, the “concentration at which the peptide is only inhibitory” value is 10 µg/mL and the “Inhibitory capacity of mimotopes” value is reported as “weak”. As for GSEFRDY [Peptide 4013], in experiment [2], the “inhibition of epitope recognition” value is “moderately inhibit binding” and the “inhibition (s/m/—)” value is listed as “m”. On to KKELRI [Peptide 1234], for which, in experiment [2], the “inhibition of epitope recognition” value is given as “hardly inhibitory at the concentrations tested” and the “Inhibitory capacity of mimotopes” value is “none”. As for SAEFRAT [Peptide 4016], in experiment [2], the “inhibition of epitope recognition” value is given as “strongly block epitope recognition” and the “inhibition (s/m/—)” value was “s”.

In the case of SAEFRTQ [Peptide 4015], in experiment [2], the “inhibition of epitope recognition” value is given as “strongly block epitope recognition” and the “inhibition (s/m/—)” value is on record as “s”. Regarding SWEFRLY [Peptide 4018], in experiment [2], the “inhibition of epitope recognition” value is reported as “strongly block epitope recognition” and the “inhibition (s/m/—)” value was “s”. Take SWEFRNP [Peptide 4017]: in experiment [2], the “inhibition of epitope recognition” value was “strongly block epitope recognition” and the “inhibition (s/m/—)” value was “s”. Take SWFRNP [Peptide 4019]: in experiment [2], the “inhibition of epitope recognition” value is listed as “not inhibitory at the concentrations tested” and the “inhibition (s/m/—)” value is listed as “—”. Consider VPTSALA [Peptide 4037], for which, in experiment [2], the “inhibition of epitope recognition” value is listed as “not inhibitory at the concentrations tested” and the “inhibition (s/m/—)” value is reported as “—”. In the case of WHWSWR [Peptide 4004], in experiment [2], the “inhibition of epitope recognition” value is on record as “not able to inhibit binding” and the “Inhibitory capacity of mimotopes” value was “none”. With YREFFI [Peptide 3003], in experiment [2], the “inhibition of epitope recognition” value is “not able to inhibit binding” and the “Inhibitory capacity of mimotopes” value was “none”. With YREFRI [Peptide 3004], in experiment [2], the “inhibition of epitope recognition” value is recorded as “block epitope recognition”, the “concentration at which the peptide is only inhibitory” value turned out to be 50 µg/mL and the “Inhibitory capacity of mimotopes” value is on record as “weak”.

The record behind these values is patent US8022180B2, “Method for preventing and treating Alzheimer's disease” (Affiris Forschungs-und Entwicklungs GmbH, priority 2004, dated 2011).
